Assay results as given in patent US12721832B2, “Anti-senescence plant polyphenol drug downregulating senescence-related secretory phenotype and use thereof” (BYHEALTH CO., LTD., priority 2021, dated 2026).

System: SASP factors
Assay: qRT-PCR of SASP molecules in BLEO-induced senescent PSC27 cells at different PCC1 concentrations
Type: cell-based, human
Description: All data are normalized results compared to the CTRL group. *, P<0.05; **, P<0.01.
Total RNA of cells in the growth phase or stasis phase was extracted with Trizol reagent, 1 mL Trizol was added to each T25 culture flask, the cell layer was scraped off with a cell scraper, transferred into a centrifuge tube, and mixed well until not viscous. […] After the RNA was quantified by a spectrophotometer, a small amount of total RNA was taken for 1% agarose electrophoresis to check the status and quality of the RNA. […]
Sample was loaded according to the above standard, and the reaction conditions were: 95° C. pre-denaturation for 15 seconds, then 95° C. for 5 seconds, 60° C. for 31 seconds, 40 cycles; melting curve conditions were 95° C. for 15 seconds, 60° C. for 30 seconds, 95° C. for 15 seconds. […] The expression of (3-actin was used as an internal reference. After the reaction was completed, the amplification of each gene was checked by software analysis, the corresponding threshold cycle number was derived, and the relative expression of each gene was calculated using the 2-AACt method. The peak and waveform of the melting curve was analyzed to determine whether the obtained amplification product was a specific single target fragment. […]

## Oc1cc(O)c2c(c1)O[C@H](c1ccc(O)c(O)c1)[C@H](O)[C@H]2c1c(O)cc(O)c2c1O[C@H](c1ccc(O)c(O)c1)[C@H](O)[C@H]2c1c(O)cc(O)c2c1O[C@H](c1ccc(O)c(O)c1)[C@H](O)C2 [PCC1, procyanidin C1]
Compared with 10 μM
  SASP inhibition at lower or higher concentrations: less effective
Concentration gradient, senescent PSC27
  working concentration inhibiting SASP development with the greatest efficiency: 10 µM
